The results in this text go back to publication PMC8449657, “Identification of a self‐sufficient cytochrome P450 monooxygenase from Cupriavidus pinatubonensis JMP134 involved in 2‐hydroxyphenylacetic acid catabolism, via homogentisate pathway” (Microbial Biotechnology, 2021).

The assay concerns the target T1, OhpA (Cupriavidus pinatubonensis, UniProt Q46QG0).
T1 construct: gene Reut_B5278; full length, 783 aa, untagged as far as told; pBS1-ohpA (PBAD) expressed in Pseudomonas putida KT2440, assayed in cell extract
T1 sequence (Q46QG0 1-783): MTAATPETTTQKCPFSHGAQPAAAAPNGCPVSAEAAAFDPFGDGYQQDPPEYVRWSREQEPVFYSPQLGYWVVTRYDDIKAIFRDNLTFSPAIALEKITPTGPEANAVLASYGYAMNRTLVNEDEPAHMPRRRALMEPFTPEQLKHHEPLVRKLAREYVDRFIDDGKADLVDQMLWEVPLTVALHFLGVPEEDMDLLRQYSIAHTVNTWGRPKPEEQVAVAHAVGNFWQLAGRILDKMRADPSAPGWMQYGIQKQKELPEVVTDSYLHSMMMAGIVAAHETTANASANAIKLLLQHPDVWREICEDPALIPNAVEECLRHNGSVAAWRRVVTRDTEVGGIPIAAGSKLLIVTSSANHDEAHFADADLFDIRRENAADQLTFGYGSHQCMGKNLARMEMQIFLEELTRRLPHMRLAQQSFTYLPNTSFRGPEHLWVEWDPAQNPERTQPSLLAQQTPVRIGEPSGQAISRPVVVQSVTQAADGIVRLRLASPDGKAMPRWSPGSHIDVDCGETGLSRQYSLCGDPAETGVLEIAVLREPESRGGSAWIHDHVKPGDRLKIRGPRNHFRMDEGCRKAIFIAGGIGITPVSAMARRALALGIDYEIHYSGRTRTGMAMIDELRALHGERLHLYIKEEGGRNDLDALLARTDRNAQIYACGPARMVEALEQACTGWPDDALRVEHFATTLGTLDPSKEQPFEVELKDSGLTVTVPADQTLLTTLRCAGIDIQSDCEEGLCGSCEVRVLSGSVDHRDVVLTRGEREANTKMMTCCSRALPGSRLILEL
The experiment in a line: substrate-dependent NADH oxidation at […] nm in extract of P. putida KT2440 pBS1-ohpA. The format is biochemical. The conditions noted are these: 0.2 mM NADH, 100 uM 2-HPA, 1 uM FAD, 35 mM Tris/acetate pH 7.5.

On to `NC(=O)C1=CN([C@@H]2O[C@H](COP(=O)(O)OP(=O)(O)OC[C@H]3O[C@@H](n4cnc5c(N)ncnc54)[C@H](O)[C@@H]3O)[C@@H](O)[C@H]2O)C=CC1` [NADH], for which the “substrate-dependent NADH oxidation at 340 nm in extract of P. putida KT2440 pBS1” value is “we assayed the substrate‐dependent NADH oxidation in cell extracts of P. putida KT2440 harbouring pBS1‐ohpA”.
